Source: patent US20250177405A1, “METHODS OF TREATING NEUROLOGICAL AND CARDIOVASCULAR CONDITIONS” (ASTROCYTE PHARMACEUTICALS, INC., priority 2021, published 2025)
“Also recorded” adds a separate entry of the source.

Experiments:
[1] = brain tissue binding (free fraction); type: in vitro ADME, mouse
Excerpt: Example 3 of U.S. Pat. No. 9,789,131, which is incorporated herein by reference, describes assays for determining the plasma and brain free fraction of certain compounds such as I-1. Compounds described herein may be evaluated using such assays or similar variants thereof.

[2] = system: traumatic brain injury (TBI) in mice; test: mouse traumatic brain injury (TBI) model; conditions: in vivo
Description: Animals and traumatic brain injury (TBI): TBI is performed with a controlled closed skull injury model as described in Talley-Watts et al. 2012 (J. Neurotrauma 30, 55-66). Following the method described therein, a pneumatic impact device is used to generate a moderate TBI leaving the skull and dura matter intact. To achieve this, C57BL/6 mice are anesthetized with isoflurane (3% induction, 1% maintenance) in 100% oxygen. A body temperature of 37° C. is maintained using a temperature-controlled heated surgical table. A small midline incision is made on the scalp using aseptic surgical techniques. A 5 mm stainless steel disc is positioned on the skull and fixed using superglue on the right parietal bone between bregma and lamda over the somatosensory cortex. The mouse is then positioned on a stage directly under the pneumatic impact tip. […] Mice are placed in a Thermo-Intensive Care Unit (Braintree Scientific model FV-1; 37° C.; 27% O2) and monitored until fully awake and moving freely. […]
Western Blot Analysis for GFAP: At selected survival times, mice are anesthetized under isoflurane and sacrificed. […] The homogenate is transferred to a 2 mL tube and centrifuged at 1000 g for 10 minutes at 4° C. and the supernatant is collected and analyzed. Protein concentration is determined by the BCA assay using a 1:50 dilution. […]

[3] = physiological parameter assessment during tMCAO study; type: in vivo, Macaca fascicularis
Description: Body weight, core body temperature, mean arterial blood pressure (MABP), heart rate, pO2, pCO2, sO2 and blood pH were assessed prior to and after tMCAO at designated intervals in relation to reported normal physiological ranges for each parameter (references 22-23).

[4] = system: brain A1R/A3R; test: estimated brain receptor occupancy of I-1 in nonhuman primate stroke study; type: in vivo
Description: Cerebrospinal fluid drug concentration is an established proxy for unbound drug brain concentration that interacts with central receptor targets (references 46, 47). The unbound brain concentrations and resulting brain receptor occupancy at the A1R and A3R can be estimated using receptor affinity data and simple mass action equations (references 48, 49). […] Accordingly, during the 22 h infusion of I-1, sufficient CSF concentrations were available to provide coverage of central A1R and A3R in the macaque.
(§1) Receptor occupancy is a mass action relationship:
(§2) The percentage of a receptor occupied by an agonist or antagonist is a function of the drug concentration and the drug affinity for the receptor target. The challenge is that drug concentrations at the target site (in this case, brain, and CSF) can vary by species, as can affinity for the drug target. Affinity of I-1 for its receptor target can vary by as much as 5-fold between species. Accordingly, for each species, it is necessary to determine the I-1 affinity for its target as well as the concentration of I-1 at each administered dose in a relevant matrix.
We then proceeded to our key preclinical stroke efficacy model in nonhuman primates. Pre-efficacy pharmacokinetic studies obtained plasma and CSF pharmacokinetic data. […]

[5] = target: T1, A3 receptor in the mouse (Mus musculus, UniProt Q61618); test: affinity at mouse A3 receptor; type: binding
T1 sequence (Q61618 1-319): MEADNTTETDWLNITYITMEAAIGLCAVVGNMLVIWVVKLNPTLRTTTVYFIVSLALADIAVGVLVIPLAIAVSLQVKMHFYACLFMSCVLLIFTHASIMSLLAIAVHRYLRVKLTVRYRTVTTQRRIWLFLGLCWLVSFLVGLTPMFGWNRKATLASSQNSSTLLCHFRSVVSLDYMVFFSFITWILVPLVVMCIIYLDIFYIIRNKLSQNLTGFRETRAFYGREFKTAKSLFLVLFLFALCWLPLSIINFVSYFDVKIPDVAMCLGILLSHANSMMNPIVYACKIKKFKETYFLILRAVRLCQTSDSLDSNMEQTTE
Description: Similar competition binding assays may be conducted using HEK293 cell membranes expressing mARs using [^125I]I-AB-MECA to label A1 or A3ARs and [^3H]CGS21680 to label A2AARs. IC50 values were converted to Ki values using known methods. Nonspecific binding was determined in the presence of 100 μM NECA.

[6] = system: brain A1R/A3R; test: estimated brain receptor occupancy of I-1 in neonatal pig efficacy studies; type: in vivo
Excerpt: as §1, §2
Using this receptor occupancy estimate, we advanced to studies in neonatal pigs, targeting doses that would yield unbound brain and CSF concentrations that would provide a similar receptor occupancy to that associated with efficacy in the rodent models. In the pig, we had the advantage of conducting pharmacokinetic studies involving CSF collection, brain equilibrium dialysis to directly determine brain unbound extracellular fluid concentrations, plasma concentrations and finally total brain concentrations. […] This was a key study to validate the use of I-1 CSF concentrations to estimate brain receptor occupancy. In the pig efficacy studies, we achieved efficacy at estimated receptor occupancies of around 2%.

[7] = system: brain A1R/A3R; test: estimated brain receptor occupancy of I-1 in rodent efficacy studies; type: in vivo; conditions: mouse and rat efficacy models, from brain unbound drug concentrations
Excerpt: as §1, §2
In our rodent mouse and rat efficacy studies, we were able to directly determine brain unbound drug concentrations at efficacious doses. In those efficacy models, the estimated receptor occupancies associated with efficacy were around 1% or less.

For CSc1nc(N)c2ncn([C@H]3C(O)C(O)[C@]4(CO)C[C@H]34)c2n1 (stereo in doubt) [Compound I-1], the “free (unbound) fraction in brain” value ([1]; mouse brain tissue) was 0.13, the “fraction available to interact with the A3 receptor, versus Cl-IB-IMECA” value ([1]; mouse models) was “at least 1000 fold” and the “efficacy in mouse TBI model” value [2] was “effective; also recorded: significant efficacy”. The “physiological parameters versus vehicle-treated group” value ([3]; baseline and during the study period) was “no clinically relevant differences”, the “MABP or heart rate” value ([3]; systemic I-1 administration, tMCAO macaques) was “did not result in significant alterations” and the “estimated receptor occupancy associated with significant efficacy” value ([4]; NHP stroke study, Low, Mid, High Doses) was 1-15%. The “estimated receptor occupancy at which efficacy started” value ([4]; monkey) was about 34%, the “difference in affinity between I-1 and Cl-IB-MECA” value [5] was “approximately 25,000 fold” and the “estimated receptor occupancies at which efficacy was achieved” value [6] was “around 2%”. For the same compound, the “estimated receptor occupancies associated with efficacy” value [7] was at most 1%.
